Starred links: 1 amine or outer side, 2 acyl side, 3 side chain; linkers in the order of their positions; H or OH if unused. Non-standard residues stand in square brackets, D forms with d. Residues, ends and D or L forms follow the SMILES beside them. *: point of attachment. dPro(4R-(4-pyridylmethyl)) = O=C(O)[C@H]1C[C@@H](Cc2ccncc2)CN1; Trp(βS-Me,4-F) = C[C@@H](c1c[nH]c2cccc(F)c12)[C@H](N)C(=O)O; Bip(4'-COOH) = N[C@@H](Cc1ccc(-c2ccc(C(=O)O)cc2)cc1)C(=O)O; dPro(3S-(4-F-Bn)) = O=C(O)[C@@H]1NCC[C@@H]1Cc1ccc(F)cc1; Phe(2-Cl,4-COOH) = N[C@@H](Cc1ccc(C(=O)O)cc1Cl)C(=O)O; 1Nal(3S-Me) = C[C@@H](c1cccc2ccccc12)[C@H](N)C(=O)O; X4 = O=C([C@H]1[C@@H](Cc2ccncc2)CCN1[*:1])[*:2]; Ala(pyrimidin-5-yl) = N[C@@H](Cc1cncnc1)C(=O)O; Phe(4-COOH) = N[C@@H](Cc1ccc(C(=O)O)cc1)C(=O)O; Bip = N[C@@H](Cc1ccc(-c2ccccc2)cc1)C(=O)O; Phe(4-Br) = N[C@@H](Cc1ccc(Br)cc1)C(=O)O; Pro(cis-4-F) = O=C(O)[C@@H]1C[C@H](F)CN1; Ala(4-THP) = N[C@@H](CC1CCOCC1)C(=O)O; AEF = NCCOc1ccc(C[C@H](N)C(=O)O)cc1; d(αMeD) = C[C@@](N)(CC(=O)O)C(=O)O; 4Pal = N[C@@H](Cc1ccncc1)C(=O)O; aThr = C[C@H](O)[C@H](N)C(=O)O; Dab = NCC[C@H](N)C(=O)O; Nva = CCC[C@H](N)C(=O)O; Aib = CC(C)(N)C(=O)O; X2 = O=C(c1ncccn1)*
Target: T1, IL-1β (Homo sapiens, UniProt P01584)
T1 construct: purchased BioLegend 579404
T1 sequence (P01584 117-269): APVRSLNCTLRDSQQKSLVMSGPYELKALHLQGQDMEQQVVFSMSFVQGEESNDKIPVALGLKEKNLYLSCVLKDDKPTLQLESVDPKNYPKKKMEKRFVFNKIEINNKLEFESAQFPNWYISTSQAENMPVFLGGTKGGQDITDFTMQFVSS
Experiment: IL-6 assay in MRC5 cells: inhibition of IL-1β induced IL-6 secretion (AlphaLISA)
Type: cell-based
Conditions: inhibition of IL-1β induced IL-6 secretion in MRC5 cells; compound pre-incubated 1 hour with recombinant human IL-1β; read-out: MRC5 IC50
Procedure, shortened: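 Compound was pre-incubated 1 h at ambient temperature with recombinant human IL-1β at 2λ EC80 before adding human lung fibroblast MRC5 cells (3000/well) in EMEM with 0.025% BSA. After overnight culture at 37 °C, 5% CO2, secreted IL-6 in conditioned medium was measured by AlphaLISA; IC50 from 4-parameter logistic fits.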

Row | IC50 | SMILES
1 | 12 pM | C[C@@H](c1c[nH]c2cccc(F)c12)[C@@H]1NC(=O)[C@@H]2C[C@H](F)CN2C(=O)CNC(=O)[C@H](Cc2ccc(C(=O)O)cc2)NC(=O)[C@H](Cc2ccncc2)NC(=O)[C@H](Cc2ccc(Br)cc2)NC(=O)[C@H]2[C@@H](Cc3ccc(F)cc3)CCN2C(=O)CNC(=O)[C@H](CCN)NC(=O)[C@H](CCC(N)=O)NC(=O)[C@H](Cc2cncnc2)NC(=O)[C@@](C)(CC(=O)O)NC(=O)[C@H](Cc2c[nH]c3ccccc23)NC(=O)[C@H](CO)NC(=O)C(C)(C)NC1=O [Example 299] (cyclo([Phe(4-Br)][4Pal][Phe(4-COOH)]G[Pro(cis-4-F)][Trp(βS-Me,4-F)][Aib]SW[d(αMeD)][Ala(pyrimidin-5-yl)]Q[Dab]G[dPro(3S-(4-F-Bn))]))
2 | 27 pM | CCC[C@@H]1NC(=O)[C@@](C)(CC(=O)O)NC(=O)[C@H](Cc2c[nH]c3ccccc23)NC(=O)[C@H](CO)NC(=O)C(C)(C)NC(=O)[C@H]([C@@H](C)c2c[nH]c3cccc(F)c23)NC(=O)[C@@H]2C[C@H](F)CN2C(=O)CNC(=O)[C@H](Cc2ccc(C(=O)O)cc2)NC(=O)[C@H](Cc2ccncc2)NC(=O)[C@H](Cc2ccc(-c3ccc(C(=O)O)cc3)cc2)NC(=O)[C@H]2[C@@H](Cc3ccncc3)CCN2C(=O)CNC(=O)[C@H](CCN)NC(=O)[C@H](CCC(N)=O)NC1=O [Example 231] (cyclo([Bip(4'-COOH)][4Pal][Phe(4-COOH)]G[Pro(cis-4-F)][Trp(βS-Me,4-F)][Aib]SW[d(αMeD)][Nva]Q[Dab]G[X4]))
3 | 18 pM | C[C@@H](c1cccc2ccccc12)[C@@H]1NC(=O)[C@@H]2C[C@H](F)CN2C(=O)CNC(=O)[C@H](Cc2ccc(C(=O)O)cc2)NC(=O)[C@H](Cc2ccncc2)NC(=O)[C@H](Cc2ccc(-c3ccccc3)cc2)NC(=O)[C@H]2C[C@@H](Cc3ccncc3)CN2C(=O)CNC(=O)[C@H](CCN)NC(=O)[C@H](CCC(N)=O)NC(=O)[C@H](CC2CCOCC2)NC(=O)[C@@](C)(CC(=O)O)NC(=O)[C@H](Cc2c[nH]c3ccccc23)NC(=O)[C@H](CO)NC(=O)C(C)(C)NC1=O [Example 290] (cyclo([Bip][4Pal][Phe(4-COOH)]G[Pro(cis-4-F)][1Nal(3S-Me)][Aib]SW[d(αMeD)][Ala(4-THP)]Q[Dab]G[dPro(4R-(4-pyridylmethyl))]))

Same assay, conditions: inhibition of IL-1β induced IL-6 secretion in MRC5 cells; read-out: MRC5 IC50

Row | IC50 | SMILES
4 | 14 pM | C[C@@H](c1c[nH]c2cccc(F)c12)[C@@H]1NC(=O)[C@@H]2C[C@H](F)CN2C(=O)CNC(=O)[C@H](Cc2ccc(C(=O)O)cc2)NC(=O)[C@H](Cc2ccncc2)NC(=O)[C@H](Cc2ccc(OCCNC(=O)c3ncccn3)cc2)NC(=O)[C@H]2C[C@@H](Cc3ccncc3)CN2C(=O)CNC(=O)[C@H](CCN)NC(=O)[C@H](CCC(N)=O)NC(=O)[C@H](Cc2cncnc2)NC(=O)C(C)(C)NC(=O)[C@H](Cc2c[nH]c3ccccc23)NC(=O)[C@H](CO)NC(=O)C(C)(C)NC1=O [Example 304] (cyclo([AEF](X2)[4Pal][Phe(4-COOH)]G[Pro(cis-4-F)][Trp(βS-Me,4-F)][Aib]SW[Aib][Ala(pyrimidin-5-yl)]Q[Dab]G[dPro(4R-(4-pyridylmethyl))]))
5 | 17 pM | C[C@H](O)[C@@H]1NC(=O)C(C)(C)NC(=O)[C@H]([C@@H](C)c2c[nH]c3cccc(F)c23)NC(=O)[C@@H]2C[C@H](F)CN2C(=O)CNC(=O)[C@H](Cc2ccc(C(=O)O)cc2)NC(=O)[C@H](Cc2ccncc2)NC(=O)[C@H](Cc2ccc(-c3ccc(C(=O)O)cc3)cc2)NC(=O)[C@H]2C[C@@H](Cc3ccncc3)CN2C(=O)CNC(=O)[C@H](CCN)NC(=O)[C@H](CCC(N)=O)NC(=O)[C@H](CC2CCOCC2)NC(=O)[C@@](C)(CC(=O)O)NC(=O)[C@H](Cc2c[nH]c3ccccc23)NC1=O [Example 353] (cyclo([Bip(4'-COOH)][4Pal][Phe(4-COOH)]G[Pro(cis-4-F)][Trp(βS-Me,4-F)][Aib][aThr]W[d(αMeD)][Ala(4-THP)]Q[Dab]G[dPro(4R-(4-pyridylmethyl))]))
6 | 14 pM | C[C@H](O)[C@@H]1NC(=O)[C@@](C)(CC(=O)O)NC(=O)[C@H](Cc2c[nH]c3ccccc23)NC(=O)[C@H](CO)NC(=O)C(C)(C)NC(=O)[C@H]([C@@H](C)c2cccc3ccccc23)NC(=O)[C@@H]2C[C@H](F)CN2C(=O)CNC(=O)[C@H](Cc2ccc(C(=O)O)cc2Cl)NC(=O)[C@H](Cc2ccncc2)NC(=O)[C@H](Cc2ccc(-c3ccc(C(=O)O)cc3)cc2)NC(=O)[C@H]2C[C@@H](Cc3ccncc3)CN2C(=O)CNC(=O)[C@H](CCN)NC(=O)[C@H](CCC(N)=O)NC1=O [Example 354] (cyclo([Bip(4'-COOH)][4Pal][Phe(2-Cl,4-COOH)]G[Pro(cis-4-F)][1Nal(3S-Me)][Aib]SW[d(αMeD)][aThr]Q[Dab]G[dPro(4R-(4-pyridylmethyl))]))
